ChEMBL document CHEMBL1201862, “PubChem BioAssay data set” (2004)
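Test compounds were applied to cells in 96-well plates for 48 hours at 5 doses. Abbreviation: GI50, concentration required for 50% inhibition of growth.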 Active and inactive are the calls of the source. Rule as the data show it: active = GI50 up to about 1.1 µM and inactive = higher. Numbered stars: 1 amine (or outer) side, 2 acyl side, 3 side chain; on linkers, the order of the positions; unused ones are H or OH. Square brackets hold non-standard residues; d marks the D form. Peptide text beside a SMILES is read from it. * marks the point of attachment. X30 = CC(=O)N(C)SCC(N[*:1])C(=O)[*:2]; Cbz = O=C(OCc1ccccc1)*; Bn = c1ccc(C*)cc1

What was measured:
Test in all cases: NCI anticancer screen, dose series, 48 h
786-0 = tested on: 786-0
CAKI-1 = tested on: CAKI-1
EKVX = tested on: EKVX
HL-60 = tested on: HL-60
HOP-92 = tested on: HOP-92
HT-29 = tested on: HT-29
K562 = tested on: K562
MCF7 = tested on: MCF7
MOLT-4 = tested on: MOLT-4
Malme-3M = tested on: Malme-3M
NCI-H226 = tested on: NCI-H226
NCI-H23 = tested on: NCI-H23
OVCAR-3 = tested on: OVCAR-3
PC-3 = tested on: PC-3
RPMI-8226 = tested on: RPMI-8226
RXF 393 = tested on: RXF 393
SF-539 = tested on: SF-539
SK-MEL-5 = tested on: SK-MEL-5
TK-10 = tested on: TK-10
SNB-75 = tested on: SNB-75

## COc1ccc(C2OC(c3ccncc3)=NN2C)cc1OC (stereo not drawn)
786-0
  GI50: > 100 µM (inactive)
CAKI-1
  GI50: 73.3 µM (inactive)
EKVX
  GI50: > 100 µM (inactive)
HL-60
  GI50: 96.8 µM (inactive)
HOP-92
  GI50: 48.9 µM (inactive)
HT-29
  GI50: > 100 µM (inactive)
K562
  GI50: > 100 µM (inactive)
MCF7
  GI50: 71.3 µM (inactive)
MOLT-4
  GI50: 75.7 µM (inactive)
Malme-3M
  GI50: > 100 µM (inactive)
NCI-H226
  GI50: 81.7 µM (inactive)
NCI-H23
  GI50: > 100 µM (inactive)
OVCAR-3
  GI50: > 100 µM (inactive)
PC-3
  GI50: 53.2 µM (inactive)
RPMI-8226
  GI50: > 100 µM (inactive)
RXF 393
  GI50: 93.5 µM (inactive)
SF-539
  GI50: > 100 µM (inactive)
SK-MEL-5
  GI50: 92.5 µM (inactive)
TK-10
  GI50: 79.4 µM (inactive)

## CCOC(=O)c1ccc(/N=C/C=C(\Nc2ccc(C(=O)OCC)cc2)C23CC4CC(CC(C4)C2)C3)cc1
786-0
  GI50: 56.1 µM (inactive)
CAKI-1
  GI50: > 100 µM (inactive)
EKVX
  GI50: 48.4 µM (inactive)
HL-60
  GI50: 3.27 µM (inactive)
HOP-92
  GI50: 15.8 µM (inactive)
HT-29
  GI50: 26.5 µM (inactive)
K562
  GI50: 4.05 µM (inactive)
MCF7
  GI50: 43.9 µM (inactive)
MOLT-4
  GI50: < 0.01 µM (active)
Malme-3M
  GI50: > 100 µM (inactive)
NCI-H226
  GI50: > 100 µM (inactive)
NCI-H23
  GI50: 54 µM (inactive)
OVCAR-3
  GI50: > 100 µM (inactive)
PC-3
  GI50: 51.1 µM (inactive)
RXF 393
  GI50: 27 µM (inactive)
SF-539
  GI50: 28.2 µM (inactive)
SK-MEL-5
  GI50: 30.6 µM (inactive)
SNB-75
  GI50: 65.6 µM (inactive)
TK-10
  GI50: 71.6 µM (inactive)

## N#Cc1c(Cl)cccc1Oc1ccc(S(=O)(=O)/N=C(\NN)Nc2ccc(Cl)cc2)cc1
786-0
  GI50: 23.8 µM (inactive)
CAKI-1
  GI50: 33.3 µM (inactive)
EKVX
  GI50: 23.3 µM (inactive)
HL-60
  GI50: 21.5 µM (inactive)
HOP-92
  GI50: 21.2 µM (inactive)
HT-29
  GI50: 30.3 µM (inactive)
K562
  GI50: 34.8 µM (inactive)
MCF7
  GI50: 35.7 µM (inactive)
MOLT-4
  GI50: 14.6 µM (inactive)
NCI-H226
  GI50: 17.4 µM (inactive)
NCI-H23
  GI50: 24.3 µM (inactive)
OVCAR-3
  GI50: 19.7 µM (inactive)
PC-3
  GI50: 23.6 µM (inactive)
RPMI-8226
  GI50: 32.5 µM (inactive)
RXF 393
  GI50: 19.1 µM (inactive)
SF-539
  GI50: 17.7 µM (inactive)
SK-MEL-5
  GI50: 17.1 µM (inactive)
SNB-75
  GI50: 21.6 µM (inactive)
TK-10
  GI50: 26.9 µM (inactive)

## Cc1cc2c(cc1Cl)Sc1nnc(Nc3ccccc3)n1S2(=O)=O
786-0
  GI50: 4.75 µM (inactive)
CAKI-1
  GI50: 11.1 µM (inactive)
EKVX
  GI50: 11.7 µM (inactive)
HL-60
  GI50: 1.98 µM (inactive)
HOP-92
  GI50: 5.57 µM (inactive)
HT-29
  GI50: 23.4 µM (inactive)
K562
  GI50: 8.69 µM (inactive)
MCF7
  GI50: 8.02 µM (inactive)
MOLT-4
  GI50: 3.07 µM (inactive)
NCI-H226
  GI50: 3.08 µM (inactive)
NCI-H23
  GI50: 3.59 µM (inactive)
OVCAR-3
  GI50: 2.2 µM (inactive)
PC-3
  GI50: 5.7 µM (inactive)
RPMI-8226
  GI50: 2.61 µM (inactive)
RXF 393
  GI50: 5.26 µM (inactive)
SF-539
  GI50: 2.39 µM (inactive)
SK-MEL-5
  GI50: 11.7 µM (inactive)
SNB-75
  GI50: 5.47 µM (inactive)
TK-10
  GI50: 17.8 µM (inactive)

## O=C1CC(c2ccccc2)NCCCCN2CC(CN1)C(C(O)c1ccccc1)C2=O (stereo not drawn)
786-0
  GI50: > 100 µM (inactive)
CAKI-1
  GI50: > 100 µM (inactive)
EKVX
  GI50: > 100 µM (inactive)
HL-60
  GI50: > 100 µM (inactive)
HOP-92
  GI50: > 100 µM (inactive)
HT-29
  GI50: > 100 µM (inactive)
MCF7
  GI50: > 100 µM (inactive)
MOLT-4
  GI50: > 100 µM (inactive)
Malme-3M
  GI50: > 100 µM (inactive)
NCI-H226
  GI50: > 100 µM (inactive)
NCI-H23
  GI50: > 100 µM (inactive)
OVCAR-3
  GI50: > 100 µM (inactive)
PC-3
  GI50: > 100 µM (inactive)
RXF 393
  GI50: > 100 µM (inactive)
SF-539
  GI50: > 100 µM (inactive)
SK-MEL-5
  GI50: > 100 µM (inactive)
SNB-75
  GI50: 95.5 µM (inactive)
TK-10
  GI50: > 100 µM (inactive)

## c1csc(-c2ccc(-c3ccsc3)s2)c1
786-0
  GI50: > 100 µM (inactive)
CAKI-1
  GI50: > 100 µM (inactive)
EKVX
  GI50: > 87.3 µM (inactive)
HL-60
  GI50: > 100 µM (inactive)
HOP-92
  GI50: > 100 µM (inactive)
HT-29
  GI50: > 100 µM (inactive)
K562
  GI50: > 100 µM (inactive)
MCF7
  GI50: > 100 µM (inactive)
MOLT-4
  GI50: > 100 µM (inactive)
Malme-3M
  GI50: > 100 µM (inactive)
NCI-H226
  GI50: > 75.5 µM (inactive)
NCI-H23
  GI50: > 100 µM (inactive)
PC-3
  GI50: 97.5 µM (inactive)
RPMI-8226
  GI50: > 100 µM (inactive)
RXF 393
  GI50: > 87.9 µM (inactive)
SF-539
  GI50: 68.5 µM (inactive)
SK-MEL-5
  GI50: > 100 µM (inactive)
SNB-75
  GI50: 57.4 µM (inactive)
TK-10
  GI50: > 100 µM (inactive)

## COc1ccc(/C=N/NC(=S)Nc2cc(C)ccc2OC)cc1
786-0
  GI50: 22.7 µM (inactive)
CAKI-1
  GI50: 29.7 µM (inactive)
EKVX
  GI50: 20.8 µM (inactive)
HL-60
  GI50: 20.3 µM (inactive)
HOP-92
  GI50: 25.2 µM (inactive)
HT-29
  GI50: 10.1 µM (inactive)
K562
  GI50: 0.63 µM (active)
MCF7
  GI50: 22.9 µM (inactive)
MOLT-4
  GI50: 9.98 µM (inactive)
Malme-3M
  GI50: 25.8 µM (inactive)
NCI-H23
  GI50: 29.8 µM (inactive)
OVCAR-3
  GI50: 40.2 µM (inactive)
PC-3
  GI50: 34.4 µM (inactive)
RPMI-8226
  GI50: 11.1 µM (inactive)
RXF 393
  GI50: 33.7 µM (inactive)
SF-539
  GI50: 24.5 µM (inactive)
SK-MEL-5
  GI50: 15.6 µM (inactive)
SNB-75
  GI50: > 100 µM (inactive)

## CC(C)C[C@H](NC(=O)CCc1ccccc1)B(O)O
786-0
  GI50: 12.3 µM (inactive)
CAKI-1
  GI50: 5.08 µM (inactive)
EKVX
  GI50: 42.1 µM (inactive)
HL-60
  GI50: 2.15 µM (inactive)
HOP-92
  GI50: 29.4 µM (inactive)
HT-29
  GI50: 2.85 µM (inactive)
K562
  GI50: 17.6 µM (inactive)
MCF7
  GI50: 6.03 µM (inactive)
MOLT-4
  GI50: 3.04 µM (inactive)
Malme-3M
  GI50: 11.7 µM (inactive)
NCI-H226
  GI50: 1.62 µM (inactive)
NCI-H23
  GI50: 16.5 µM (inactive)
OVCAR-3
  GI50: 3.63 µM (inactive)
PC-3
  GI50: 37.2 µM (inactive)
RPMI-8226
  GI50: 2.24 µM (inactive)
RXF 393
  GI50: 5.66 µM (inactive)
SF-539
  GI50: 4.54 µM (inactive)
SK-MEL-5
  GI50: 8.45 µM (inactive)
TK-10
  GI50: 8.97 µM (inactive)

## Cc1c2ccccc2c(C2C3C(=O)N(c4ccc(Br)cc4)C(=O)C3ON2C(C(N)=O)c2ccccc2)c2ccccc12 (stereo not drawn)
786-0
  GI50: 5.5 µM (inactive)
CAKI-1
  GI50: 3.67 µM (inactive)
EKVX
  GI50: 5.28 µM (inactive)
HL-60
  GI50: 3.81 µM (inactive)
HOP-92
  GI50: 9.4 µM (inactive)
HT-29
  GI50: 2.58 µM (inactive)
K562
  GI50: 4.11 µM (inactive)
MCF7
  GI50: 4.43 µM (inactive)
MOLT-4
  GI50: 4.05 µM (inactive)
Malme-3M
  GI50: 3.78 µM (inactive)
NCI-H226
  GI50: 5.3 µM (inactive)
NCI-H23
  GI50: 5.56 µM (inactive)
OVCAR-3
  GI50: 3.01 µM (inactive)
PC-3
  GI50: 4.86 µM (inactive)
RPMI-8226
  GI50: 1.89 µM (inactive)
RXF 393
  GI50: 11.7 µM (inactive)
SF-539
  GI50: 4.13 µM (inactive)
SK-MEL-5
  GI50: 3.1 µM (inactive)
SNB-75
  GI50: 5.02 µM (inactive)

## CC(=O)N(C)SCC(NC(=O)C(Cc1ccccc1)NC(=O)OCc1ccccc1)C(=O)NC(Cc1ccccc1)C(=O)NC(Cc1c[nH]c2ccccc12)C(=O)NC(CCCCNC(=O)OCc1ccccc1)C(=O)NC(C(=O)NC(CSN(C)C(C)=O)C(=O)NC(C(N)=O)C(C)OCc1ccccc1)C(C)OCc1ccccc1 (stereo not drawn) (Cbz-F[X30]FWK(Cbz)T(Bn)[X30]T(Bn)-NH2; configuration not given here)
786-0
  GI50: > 100 µM (inactive)
EKVX
  GI50: > 100 µM (inactive)
HL-60
  GI50: > 100 µM (inactive)
HOP-92
  GI50: 72.1 µM (inactive)
HT-29
  GI50: > 100 µM (inactive)
K562
  GI50: > 100 µM (inactive)
MCF7
  GI50: 86.5 µM (inactive)
MOLT-4
  GI50: > 100 µM (inactive)
Malme-3M
  GI50: > 100 µM (inactive)
NCI-H226
  GI50: > 100 µM (inactive)
NCI-H23
  GI50: > 100 µM (inactive)
OVCAR-3
  GI50: > 100 µM (inactive)
PC-3
  GI50: > 100 µM (inactive)
RPMI-8226
  GI50: 74.3 µM (inactive)
RXF 393
  GI50: > 100 µM (inactive)
SF-539
  GI50: > 100 µM (inactive)
SK-MEL-5
  GI50: > 100 µM (inactive)
SNB-75
  GI50: > 100 µM (inactive)
TK-10
  GI50: > 100 µM (inactive)
